Source: patent publication EP2271935B1, “METHOD AND KIT FOR THE EX VIVO EVALUATION OF THE RESPONSE OF A TUMOR TO CONDITIONS TO BE TESTED” (Universität Leipzig, priority 2008, dated 2009)
Where two headings read alike, the source gives them in different places.

Tested on: epithelial cell line KB (DSMZ ACC 136)
Test: MTT assay of proliferation under varied riboflavin content and light exposure
Type: cell-based, human
Excerpt: To address this question, three media, a) the RPMI 1640 without riboflavin and phenol red that is used in the method according to the invention and was manufactured according to our specifications by Biochrom, as well as two different RPMI 1640 charges purchased from Invitrogen which were each containing 532 nmol/L riboflavin, b) a phenol red-free (Gibco 11835), and c) a conventional RPMI 1640 (Gibco 21875) with 13.284 µmol/L phenol red. All media were supplemented with 2 mmol/L L-alanyl-1-glutamine as stabilized glutamine source (Biochrom K0302 Lot 0755 S) and the same amount of 10% (v/v) of heat-inactivated fetal calf serum (FCS) that was purchased from Invitrogen (Lot 41Q7554K) with a yield of 198 nmol/L riboflavin. […] These medium concentrations define the riboflavin concentrations in controls (see below).
In addition to the influences exerted by the different types of media alone, the riboflavin-dependent impact on the outcome of the docetaxel treatment was investigated. For this purpose 100 µl/well of docetaxel dilutions containing threefold the concentration indicated were added into the wells of microwell plates. The following seven docetaxel concentrations were tested: 19.38, 38.75, 77.5, 155, 310, 620, and 1,240 pmol/L.
To examine photoactivation-dependent riboflavin-mediated effects disturbing the outcome of ex-vivo chemoresponse-evaluation by conventional cell culture medium, and in particular in the absence of flavin-protecting experimental conditions, varying amounts of riboflavin were added. A stock solution of 200 µM (-)-riboflavin (CAS 83-68-5, Sigma R9504, FW=376.37 g/mol, purity >99%, cell culture tested) in phosphate buffered saline was diluted to adjust in each case the highest final concentration in culture (this means: after completion of the assay by addition of the other two components to the final assay volume of 300 µL) to exactly 10 µmol/L. Serial log10-dilutions were made from this concentration in each corresponding medium. These gave final concentrations in cell culture of 10.000, 1.018, 0.12, and 0.03 µmol/L in the case of medium a) (the medium according to the method of the invention), and concentrations of 10.000, 1.449, 0.594, and 0.508 µmol/L using media b) and c).
In general, each combination of riboflavin and docetaxel were tested in duplicate, and controls without additional riboflavin in quadruplicate for each experimental setting in the same 96-well plate. The experimental conditions were as follows: For each of the used media, two different plates were prepared simultaneously and either handled completely under flavin-protecting conditions (illumination only by sodium discharge lamps with an emission wavelength of 589 nm [i]), or in the same bench (Thermo MSC 12) with the installed light inside their working chamber switched on. The dilution of docetaxel and those of riboflavin in the particular medium were prepared for all four plates of each medium type prior to the other working steps under flavin-protecting conditions. Thus the administrations of these dilutions took about 20 min either under flavin-protecting conditions or illuminated conditions. After completed preparation of the plates that thereafter contained 200 µL of both diluted compounds, the plates were incubated 2 h in the incubator to allow for adjustment of the appropriate pH.
In between the stock culture of KB was harvested by trypsination of a 3-days stock culture (exponential growth phase). Stock cultures of KB cells always were grown without any antibiotic or antimycotic in phenol red- and riboflavin-free RPMI 1640 supplemented with 10% (v/v) FCS and were adapted to this medium for more than five passages. They were always handled at room temperature or warmer and were never exposed to light other than the light of a sodium discharge lamp with an emission wavelength of 589 nm for at least five passages. […]

Question: Which IC50 (Homo sapiens, Epithelial cell, 0.5 h, Plate No. 02; Riboflavin 20 nmol/L; medium a) RPMI 1640 without riboflavin and phenol red, daylight 30 min, read-out: IC50 for docetaxel with reference to control with same riboflavin content) does the source give for `CC(=O)O[C@@]12CO[C@@H]1C[C@H](O)[C@@]1(C)C(=O)[C@H](O)C3=C(C)[C@@H](OC(=O)[C@H](O)[C@@H](NC(=O)OC(C)(C)C)c4ccccc4)C[C@@](O)([C@@H](OC(=O)c4ccccc4)[C@H]21)C3(C)C` [docetaxel] here?
Answer: Its IC50 is 0.238 nM.

Question: What about the IC50 (Homo sapiens, Epithelial cell, 0.5 h, Plate No. 02; Riboflavin 20 nmol/L; medium a), daylight 30 min, read-out: IC50 for docetaxel normalized to medium control of medium with same riboflavin content) of the same compound?
Answer: Its IC50 is 0.1 nM.

Question: And the IC50 (Homo sapiens, Epithelial cell, 0.5 h, Plate No. 02; Riboflavin 30 nmol/L; medium a) RPMI 1640 without riboflavin and phenol red, daylight 30 min, read-out: IC50 for docetaxel with reference to control with same riboflavin content)?
Answer: The IC50 was 0.328 nM.

Question: And the IC50 (Homo sapiens, Epithelial cell, 0.5 h, Plate No. 02; Riboflavin 30 nmol/L; medium a), daylight 30 min, read-out: IC50 for docetaxel normalized to medium control of medium with same riboflavin content)?
Answer: The IC50 was 0.138 nM.

Question: And the IC50 (Homo sapiens, Epithelial cell, 0.5 h, Plate No. 02; Riboflavin 120 nmol/L; medium a) RPMI 1640 without riboflavin and phenol red, daylight 30 min, read-out: IC50 for docetaxel with reference to control with same riboflavin content)?
Answer: The IC50 was 0.34 nM.

Question: What about the IC50 (Homo sapiens, Epithelial cell, 0.5 h, Plate No. 02; Riboflavin 120 nmol/L; medium a), daylight 30 min, read-out: IC50 for docetaxel normalized to medium control of medium with same riboflavin content) of the same compound?
Answer: Its IC50 is 0.143 nM.

Question: What about the IC50 (Homo sapiens, Epithelial cell, 0.5 h, Plate No. 03; Riboflavin 20 nmol/L; medium a) RPMI 1640 without riboflavin and phenol red, bench lighting <30 min, read-out: IC50 for docetaxel with reference to control with same riboflavin content) of the same compound?
Answer: Its IC50 is 0.212 nM.

Question: And the IC50 (Homo sapiens, Epithelial cell, 0.5 h, Plate No. 03; Riboflavin 20 nmol/L; medium a), bench lighting <30 min, read-out: IC50 for docetaxel normalized to medium control of medium with same riboflavin content)?
Answer: The IC50 was 0.1 nM.

Question: What about the IC50 (Homo sapiens, Epithelial cell, 0.5 h, Plate No. 03; Riboflavin 30 nmol/L; medium a) RPMI 1640 without riboflavin and phenol red, bench lighting <30 min, read-out: IC50 for docetaxel with reference to control with same riboflavin content) of the same compound?
Answer: Its IC50 is 0.185 nM.

Question: What about the IC50 (Homo sapiens, Epithelial cell, 0.5 h, Plate No. 03; Riboflavin 30 nmol/L; medium a), bench lighting <30 min, read-out: IC50 for docetaxel normalized to medium control of medium with same riboflavin content) of the same compound?
Answer: The IC50 was 0.0873 nM.

Question: And the IC50 (Homo sapiens, Epithelial cell, 0.5 h, Plate No. 03; Riboflavin 120 nmol/L; medium a) RPMI 1640 without riboflavin and phenol red, bench lighting <30 min, read-out: IC50 for docetaxel with reference to control with same riboflavin content)?
Answer: The IC50 was 0.154 nM.

Question: What about the IC50 (Homo sapiens, Epithelial cell, 0.5 h, Plate No. 03; Riboflavin 120 nmol/L; medium a), bench lighting <30 min, read-out: IC50 for docetaxel normalized to medium control of medium with same riboflavin content) of the same compound?
Answer: Its IC50 is 0.0725 nM.

Question: And the IC50 (Homo sapiens, Epithelial cell, 0.5 h, Plate No. 03; Riboflavin 1018 nmol/L; medium a) RPMI 1640 without riboflavin and phenol red, bench lighting <30 min, read-out: IC50 for docetaxel with reference to control with same riboflavin content)?
Answer: The IC50 was 0.202 nM.

Question: What about the IC50 (Homo sapiens, Epithelial cell, 0.5 h, Plate No. 03; Riboflavin 1018 nmol/L; medium a), bench lighting <30 min, read-out: IC50 for docetaxel normalized to medium control of medium with same riboflavin content) of the same compound?
Answer: Its IC50 is 0.095 nM.

Question: And the IC50 (Homo sapiens, Epithelial cell, 0.5 h, Plate No. 04; Riboflavin 20 nmol/L; medium a) RPMI 1640 without riboflavin and phenol red, bench lighting <30 min, daylight 30 min, read-out: IC50 for docetaxel with reference to control with same riboflavin content)?
Answer: The IC50 was 0.175 nM.

Question: What about the IC50 (Homo sapiens, Epithelial cell, 0.5 h, Plate No. 04; Riboflavin 20 nmol/L; medium a), bench lighting <30 min, daylight 30 min, read-out: IC50 for docetaxel normalized to medium control of medium with same riboflavin content) of the same compound?
Answer: Its IC50 is 0.1 nM.

Question: And the IC50 (Homo sapiens, Epithelial cell, 0.5 h, Plate No. 04; Riboflavin 30 nmol/L; medium a) RPMI 1640 without riboflavin and phenol red, bench lighting <30 min, daylight 30 min, read-out: IC50 for docetaxel with reference to control with same riboflavin content)?
Answer: Its IC50 is 0.139 nM.

Question: And the IC50 (Homo sapiens, Epithelial cell, 0.5 h, Plate No. 04; Riboflavin 30 nmol/L; medium a), bench lighting <30 min, daylight 30 min, read-out: IC50 for docetaxel normalized to medium control of medium with same riboflavin content)?
Answer: The IC50 was 0.0796 nM.

Question: What about the IC50 (Homo sapiens, Epithelial cell, 0.5 h, Plate No. 04; Riboflavin 120 nmol/L; medium a) RPMI 1640 without riboflavin and phenol red, bench lighting <30 min, daylight 30 min, read-out: IC50 for docetaxel with reference to control with same riboflavin content) of the same compound?
Answer: Its IC50 is 0.149 nM.

Question: What about the IC50 (Homo sapiens, Epithelial cell, 0.5 h, Plate No. 04; Riboflavin 120 nmol/L; medium a), bench lighting <30 min, daylight 30 min, read-out: IC50 for docetaxel normalized to medium control of medium with same riboflavin content) of the same compound?
Answer: The IC50 was 0.0855 nM.

Question: And the IC50 (Homo sapiens, Epithelial cell, 0.5 h, Plate No. 06; Riboflavin 499 nmol/L; medium b) phenol red-free RPMI 1640, daylight 30 min, read-out: IC50 for docetaxel with reference to control with same riboflavin content)?
Answer: Its IC50 is 0.223 nM.

Question: And the IC50 (Homo sapiens, Epithelial cell, 0.5 h, Plate No. 06; Riboflavin 499 nmol/L; medium b), daylight 30 min, read-out: IC50 for docetaxel normalized to medium control of medium with same riboflavin content)?
Answer: The IC50 was 0.1 nM.

Question: And the IC50 (Homo sapiens, Epithelial cell, 0.5 h, Plate No. 06; Riboflavin 508 nmol/L; medium b) phenol red-free RPMI 1640, daylight 30 min, read-out: IC50 for docetaxel with reference to control with same riboflavin content)?
Answer: Its IC50 is 0.485 nM.

Question: What about the IC50 (Homo sapiens, Epithelial cell, 0.5 h, Plate No. 06; Riboflavin 508 nmol/L; medium b), daylight 30 min, read-out: IC50 for docetaxel normalized to medium control of medium with same riboflavin content) of the same compound?
Answer: Its IC50 is 0.218 nM.

Question: And the IC50 (Homo sapiens, Epithelial cell, 0.5 h, Plate No. 06; Riboflavin 594 nmol/L; medium b) phenol red-free RPMI 1640, daylight 30 min, read-out: IC50 for docetaxel with reference to control with same riboflavin content)?
Answer: The IC50 was 0.187 nM.
